In patent US5688787A, “Substituted β-lactam compounds useful as hypochlesterolemic agents and processes for the preparation thereof” (priority 1996, dated 1997):
Read-outs that look alike come from different tables or passages of the source.

Key:
ACAT = target: T1, ACAT (Rattus norvegicus, UniProt Q7TQM4); assay: ACAT Assay (in vitro); assay type: biochemical; conditions: for inhibition at 10 µM: Conc. 10 µM, negative = apparent stimulation, read-out: ACAT (in vitro) % Inhib.; for IC50: rat liver microsomes, read-out: ACAT (in vitro) IC50
T1 construct: Rat liver microsomes are used as the source of ACAT; from tissue; host or cells: rat liver microsomes
T1 sequence (Q7TQM4 1-524): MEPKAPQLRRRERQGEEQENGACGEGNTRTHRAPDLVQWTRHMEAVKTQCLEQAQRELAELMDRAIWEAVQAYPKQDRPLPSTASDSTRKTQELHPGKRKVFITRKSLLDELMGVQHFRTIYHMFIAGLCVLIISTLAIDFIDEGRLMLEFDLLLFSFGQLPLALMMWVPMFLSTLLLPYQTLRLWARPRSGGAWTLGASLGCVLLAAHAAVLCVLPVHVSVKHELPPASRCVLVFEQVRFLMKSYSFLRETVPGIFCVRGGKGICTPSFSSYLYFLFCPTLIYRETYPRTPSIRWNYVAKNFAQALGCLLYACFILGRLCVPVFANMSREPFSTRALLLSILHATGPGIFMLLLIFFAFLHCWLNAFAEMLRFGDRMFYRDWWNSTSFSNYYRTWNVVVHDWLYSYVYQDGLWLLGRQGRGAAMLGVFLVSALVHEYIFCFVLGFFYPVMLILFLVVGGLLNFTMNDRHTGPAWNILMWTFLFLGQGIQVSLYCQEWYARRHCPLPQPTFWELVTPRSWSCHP

Hyperlipidemic Hamster = assay: In Vivo Assay of Hypolipidemic Agents Using the Hyperlipidemic Hamster; conditions: 7 days, percent change versus control, negative = lowering; for change in vivo at 50 mg/kg / change in vivo at 5 mg/kg / change in vivo at 10 mg/kg / change in vivo at 1 mg/kg / change in vivo at 3 mg/kg: Mesocricetus auratus, po, 168 h; for change in vivo at 50 mg/kg / % Reduction (in vivo) Cholest. Esters / % Reduction (in vivo) Serum Cholest.: 50 mg/kg once daily oral; for change in vivo at 5 mg/kg: 5 mg/kg once daily oral; for change in vivo at 10 mg/kg: 10 mg/kg once daily oral; for change in vivo at 1 mg/kg: 1 mg/kg once daily oral; for change in vivo at 3 mg/kg: 3 mg/kg once daily oral
Outline: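 Hamsters, six per group, were fed chow with 0.5% cholesterol for seven days and given compound once daily by oral gavage in corn oil; controls received corn oil alone. Plasma (EDTA) and liver lipids were measured at sacrifice. Values are percent change versus control, so negative means lowering.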

[1] = read-out: % Reduction (in vivo) Cholest. Esters
[2] = read-out: % Reduction (in vivo) Serum Cholest.

SMILES	inhibition at 10 µM (ACAT) [%]	change in vivo at 50 mg/kg (Hyperlipidemic Hamster; [1]) [%]	change in vivo at 50 mg/kg (Hyperlipidemic Hamster; [2]) [%]	further results
CC[C@]1(c2ccccc2)C(=O)N(c2ccc(OC)cc2)[C@H]1c1ccccc1 (relative stereo) [Example 1AA]	-36	–	–	–
CC[C@H]1C(=O)N(c2ccc(OC)cc2)[C@H]1c1ccccc1 (relative stereo) [Example 1AB]	17	–	–	–
CC[C@H]1C(=O)N(c2ccc(OC)cc2)[C@@H]1c1ccccc1 (relative stereo) [Example 1AD]	-5	–	–	–
CC[C@H]1C(=O)N(c2c(OC)cc(OC)cc2OC)[C@H]1c1ccccc1 (relative stereo) [Example 1AE]	-7	–	–	–
CC[C@H]1C(=O)N(c2ccc(OC)cc2)[C@H]1C=Cc1ccccc1 (relative stereo) [Example 1AF]	0	–	–	–
CC[C@@H]1C(=O)N(c2ccc(OC)cc2)[C@H]1C=Cc1ccccc1 (relative stereo) [Example 1AG]	-3	-29	-16	–
COc1ccc(N2C(=O)[C@@H](C)[C@H]2c2ccccc2)cc1 (relative stereo) [Example 1AH]	4	–	–	–
COc1ccc(N2C(=O)[C@@H](C)[C@@H]2c2ccccc2)cc1 (relative stereo) [Example 1AI]	27	–	–	–
CC[C@@H]1C(=O)N(c2ccc(OC)cc2)[C@H]1c1ccc([N+](=O)[O-])cc1 (relative stereo) [Example 1AJ]	-17	0	0	–
CC[C@H]1C(=O)N(c2ccc(OC)cc2)[C@H]1c1ccc([N+](=O)[O-])cc1 (relative stereo) [Example 1AK]	-33	–	–	–
CC[C@@H]1C(=O)N(c2ccc(OC)cc2)[C@@H]1c1ccc(OC)cc1 (relative stereo) [Example 1AL]	-43	0	0	–
COc1ccc(N2C(=O)[C@H](CCCc3ccccc3)[C@H]2c2ccncc2)cc1 (relative stereo) [Example 1AR]	-41	-25	-22	–
COc1ccc(N2C(=O)[C@@H](CCc3ccccc3)[C@@H]2c2ccccc2)cc1 (relative stereo) [Example 1E]	3	–	–	–
CC[C@@]1(CCCc2ccccc2)C(=O)N(c2c(OC)cc(OC)cc2OC)[C@H]1C=Cc1ccccc1 (relative stereo) [Example 1I]	81	–	–	IC50 (ACAT): 4.5 µM
CC[C@]1(CCCc2ccccc2)C(=O)N(c2c(OC)cc(OC)cc2OC)[C@H]1C=Cc1ccccc1 (relative stereo) [Example 1J]	86	–	–	IC50 (ACAT): 3 µM
COc1ccc(N2C(=O)[C@H](c3ccccc3)[C@H]2c2ccccc2)cc1 (relative stereo) [Example 1V]	64	–	–	–
COc1ccc(N2C(=O)[C@H](C(C)C)[C@@H]2c2ccccc2)cc1 (relative stereo) [Example 1W]	9	–	–	–
COc1ccc(N2C(=O)[C@](Cc3ccccc3)(c3ccccc3)[C@@H]2c2ccccc2)cc1 (relative stereo) [Example 1Y]	50	–	–	–
COc1ccc(N2C(=O)[C@H](c3ccccc3)[C@@H]2c2ccccc2)cc1 (relative stereo) [Example 4]	16	–	–	–

SMILES	inhibition at 10 µM (ACAT) [%]	change in vivo at 50 mg/kg (Hyperlipidemic Hamster; [1]) [%]	change in vivo at 50 mg/kg (Hyperlipidemic Hamster; [2]) [%]	further results
CC[C@@H]1C(=O)N(c2ccc(OC)cc2)[C@@H]1c1ccc(N)cc1 (relative stereo) [Example 8]	-12	–	–	–
COc1ccc(N2C(=O)[C@H](CCCc3ccccc3)[C@@H]2c2ccc(S(N)(=O)=O)cc2)cc1 (relative stereo) [Example 29]	–	-24	-22	–
COc1ccc(N2C(=O)[C@H](CCCc3ccccc3)[C@@H]2c2ccc(C3OCCO3)cc2)cc1 (relative stereo) [Example 31]	–	-52	-19	–
COc1ccc(N2C(=O)[C@H](CCCc3ccccc3)[C@H]2c2cc(I)c(O)c(I)c2)cc1 (relative stereo) [Example 32A]	–	0	0	–
COc1ccc(N2C(=O)[C@H](CCCc3ccccc3)[C@H]2c2ccc(O)c(I)c2)cc1 (relative stereo) [Example 32]	–	0	0	–
COc1ccc([C@@H]2[C@@H](CCCc3ccc(N=[N+]=[N-])cc3)C(=O)N2c2ccc(OC)cc2)cc1 (relative stereo) [Example 33]	–	0	0	–
CCOC(=O)COc1ccc([C@H]2[C@@H](CCCc3ccccc3)C(=O)N2c2ccc(OC)cc2)cc1 (relative stereo) [Example 35A]	–	-84	-34	–
COc1ccc([C@@H]2[C@@H]([C@H]3C[C@H]3Cc3ccccc3)C(=O)N2c2ccc(OC)cc2)cc1 (relative stereo) [Example 36]	–	-94	-53	–
COc1ccc(N2C(=O)C(CCCc3ccccc3)C2c2ccc(C3OCCO3)cc2)cc1 (stereo not shown) [Example 1AX]	–	–	–	% Reduction (in vivo) Cholest. Esters (Hyperlipidemic Hamster): -52%; % Reduction (in vivo) Serum Cholest. (Hyperlipidemic Hamster): -16%
COc1ccc(C2C(CCCc3ccccc3)C(=O)N2c2ccc(OC)cc2)cc1 (stereo not shown) [Example 1]	–	-95	-45	change in vivo at 5 mg/kg (Hyperlipidemic Hamster; [1]): 0%; change in vivo at 5 mg/kg (Hyperlipidemic Hamster; [2]): 0%; change in vivo at 10 mg/kg (Hyperlipidemic Hamster; [1]): -55%; change in vivo at 10 mg/kg (Hyperlipidemic Hamster; [2]): -17%
COc1ccc([C@H]2[C@@H](CCCc3ccccc3)C(=O)N2c2ccc(OC)cc2)cc1 [Example 2A]	–	0	0	–
COc1ccc([C@@H]2[C@H](CCCc3ccccc3)C(=O)N2c2ccc(OC)cc2)cc1 [Example 2]	–	–	–	change in vivo at 5 mg/kg (Hyperlipidemic Hamster; [1]): -37%; change in vivo at 5 mg/kg (Hyperlipidemic Hamster; [2]): -15%; change in vivo at 10 mg/kg (Hyperlipidemic Hamster; [1]): -69%; change in vivo at 10 mg/kg (Hyperlipidemic Hamster; [2]): -28%
COc1ccc(C2C(CCCc3ccccc3)C(=O)N2c2ccc(Oc3ccccc3)cc2)cc1 (stereo not shown) [Example 5K]	–	-49	-28	–
COc1ccc([C@@H]2[C@@H](CCCc3ccccc3)C(=O)N2c2ccccc2)cc1 [Example 5L]	–	–	–	change in vivo at 1 mg/kg (Hyperlipidemic Hamster; [1]): -64%; change in vivo at 1 mg/kg (Hyperlipidemic Hamster; [2]): -54%; change in vivo at 3 mg/kg (Hyperlipidemic Hamster; [1]): -84%; change in vivo at 3 mg/kg (Hyperlipidemic Hamster; [2]): -39%; change in vivo at 10 mg/kg (Hyperlipidemic Hamster; [1]): -95%; change in vivo at 10 mg/kg (Hyperlipidemic Hamster; [2]): -50%
COc1ccc([C@H]2[C@H](CCCc3ccccc3)C(=O)N2c2ccccc2)cc1 [Example 5M]	–	-50	-20	change in vivo at 3 mg/kg (Hyperlipidemic Hamster; [1]): 0%; change in vivo at 3 mg/kg (Hyperlipidemic Hamster; [2]): -12%; change in vivo at 10 mg/kg (Hyperlipidemic Hamster; [1]): -36%; change in vivo at 10 mg/kg (Hyperlipidemic Hamster; [2]): -8%
COc1ccc([C@@H]2[C@@H](CCCc3ccccc3)C(=O)N2c2ccc(OC)cc2)cc1 [Example 9, (3R,4S)-1,4-bis-(4-methoxyphenyl)-3-(3-phenylpropyl)-2-azetidinone]	–	–	–	change in vivo at 3 mg/kg (Hyperlipidemic Hamster; [1]): -68%; change in vivo at 3 mg/kg (Hyperlipidemic Hamster; [2]): -25%; change in vivo at 5 mg/kg (Hyperlipidemic Hamster; [1]): -66%; change in vivo at 5 mg/kg (Hyperlipidemic Hamster; [2]): -21.5%; change in vivo at 10 mg/kg (Hyperlipidemic Hamster; [1]): -93%; change in vivo at 10 mg/kg (Hyperlipidemic Hamster; [2]): -43%
COc1ccc(N2C(=O)C(CCCc3ccccc3)C2c2ccc(C3OCCO3)cc2)cc1 (stereo not shown) [Example 31A]	–	–	–	% Reduction (in vivo) Cholest. Esters (Hyperlipidemic Hamster): 0%; % Reduction (in vivo) Serum Cholest. (Hyperlipidemic Hamster): 0%
COC(=O)CCC(=O)Oc1ccc(C2C(CCCc3ccccc3)C(=O)N2c2ccc(OC)cc2)cc1 (stereo not shown) [Example 34]	–	-94	-39	–

Continued, in another order:

inhibition at 10 µM (ACAT) [%]	SMILES	change in vivo at 50 mg/kg (Hyperlipidemic Hamster; [1]) [%]	change in vivo at 50 mg/kg (Hyperlipidemic Hamster; [2]) [%]	further results
-18	CCCCCCCCCC[C@@]1(CCCc2ccccc2)C(=O)N(c2ccc(OC)cc2)[C@@H]1c1ccccc1 (relative stereo) [Example 3C]	–	–	–
-70	COc1ccc(N2C(=O)[C@@H](C(C)C)[C@@H]2c2ccccc2)cc1 (relative stereo) [Example 5A]	–	–	–
-9	CCCCCCCCCC[C@@]1(CC)C(=O)N(c2ccc(OC)cc2)[C@@H]1c1ccccc1 (stereo in doubt) [Example 3T]	–	–	–
